Data reported in patent US20240335462A1, “SULFUR/PHOSPHORUS-CONTAINING ARYL COMPOUND AND APPLICATION THEREOF” (MEDSHINE DISCOVERY INC., priority 2021, published 2024).
pIC50: −log10 of the molar value.

Columns and labels:
TYK2 JH2 pseudokinase = TYK2 JH2 pseudokinase (Homo sapiens, UniProt P29597); test: Inhibitory activity on TYK2 JH2 pseudokinase (TR-FRET); type: binding; settings: 60 min room temperature, read-out: Kinase half maximal inhibitory concentration IC50 TYK2 JH2
Description: In this experiment, the inhibitory effect of compounds on TYK2 JH2 pseudokinase was tested using the method of time-resolved fluorescence resonance energy transfer (TR-FRET). In the experiment, TYK2 JH2 or JAK1 JH2 pseudokinase can simultaneously bind to fluorescently labeled Tracer and Tb antibody to form a “sandwich structure”. Tb antibody, functioning as a fluorescent donor, produces fluorescence at a wavelength of 495 nm under the excitation of light at a specific wavelength. Tracer, functioning as a fluorescent acceptor, can receive fluorescence at a wavelength of 495 nm and thus produce fluorescence at a wavelength of 520 nm, i.e., a time-resolved fluorescence resonance energy transfer (TR-FRET) signal, only when it is within the “sandwich structure”, i.e., when it is sufficiently close to Tb antibody. When the compound is added to compete with Tracer for binding to the pseudokinase, the binding of Tracer decreases, leading to a weakened TR-FRET signal. The inhibitory activity of the compound binding to the pseudokinase can be reflected by the ratio of signal values at 520 nm/495 nm.
The working solution consists of the following components: HEPES (pH 7.5) at a final concentration of 20 mM; MgCl2 at a final concentration of 10 mM; Brij-35 at a final concentration of 0.015%; DTT at a final concentration of 2 mM; and BSA at a final concentration of 50 μg/mL.
• a) The compound was dissolved in DMSO to achieve a storage concentration of 10 mM. • b) Various concentrations of the compound, 200 times the final concentration, were prepared in a compound dilution plate and transferred to an Echo plate. • c) The Echo instrument was used to transfer 150 nL of the compound from the Echo plate to a 384-well experimental plate. • d) 5 μL of TYK2 JH2 kinase, at three times the final concentration, was added to the 384-well experimental plate. • e) 5 μL of Tb, at three times the final concentration, was added to the 384-well experimental plate. • f) 5 μL of Tracer, at three times the final concentration, was added to the 384-well experimental plate. • g) The plate was centrifuged for 30 seconds and then incubated at room temperature for 60 minutes. • h) The fluorescence signal values at 520 nm/495 nm were measured using an Envision plate reader (PerkinElmer).
Data analysis was performed using the XL-Fit software to determine the IC50 of the compounds.

Ba/F3-TEL-TYK2 cells = test: Proliferation of Ba/F3-TEL-TYK2 cells (CellTiter-Glo); type: cell-based; settings: 72 hours, read-out: Half maximal inhibitory concentration IC50 for cells Ba/F3-TEL-TYK2
Text: Adenosine triphosphate (ATP) serves as a universal energy carrier in various life processes, representing the smallest unit of energy storage and transfer. The CellTiter-Glo™ Luminescent Cell Viability Assay Kit utilizes luciferase as a detection agent. During the luminescent process, luciferase requires the participation of ATP. By adding CellTiter-Glo™ reagent to the cell culture medium and measuring the luminescence, the light signal was directly proportional to the amount of ATP in the system, and ATP was positively correlated with the number of viable cells. Therefore, cell proliferation can be detected by measuring ATP content using the CellTiter-Glo kit. In this test, the cell lines used were Ba/F3-FL-TYK2-E957D and Ba/F3-TEL-TYK2. Ba/F3-FL-TYK2-E957D cells can stably express the exogenously introduced human TYK2-E957D gene, and the TYK2-E957D gene sequence contains both JH1 and JH2 domains. On the other hand, Ba/F3-TEL-TYK2 cells can stably express the exogenously introduced human TEL-TYK2 gene, and the TEL-TYK2 gene sequence contains only the JH1 domain of TYK2.
The cell lines were cultured in an incubator at 37° C. with 5% CO2. Regular passaging was performed, and cells in the logarithmic growth phase were selected for plating.
• a) The test compounds were prepared into a 10 mM solution with DMSO, and then diluted to 0.3 or 1 mM with DMSO. • b) Preparation of 1000× compound storage plate (tube): The compounds were 3-fold serially diluted from the highest concentration to the lowest concentration, creating 9 different concentrations. • c) Preparation of 20× compound working solution: 49 μL of cell culture medium was added to a flat-bottomed 96-well transparent drug plate. From the 1000× compound storage plate, 1 μL of the compound was pipetted into the cell culture medium in the 96-well transparent drug plate. In the solvent control, 1 μL of DMSO was added. After the compound or DMSO was added, the mixture was homogenized using a multi-channel pipette.
• a) Cells were stained with trypan blue and viable cells were counted to ensure a cell viability of 90% or more. • b) 95 μL of cell suspension (2000 cells/well) was added to each well of the compound assay cell plate, and cell-free culture medium containing 0.1% DMSO was added to the Min control wells. • c) Administration in the compound assay cell plate: 5 μL of 20× compound working solution was added to the cell culture plate. 5 μL of DMSO-cell culture medium mixture was added to the Max control wells. The final concentration of DMSO was 0.1%. • d) The culture plate was then incubated in an incubator at 37° C. with 5% CO2 for 72 hours.
The following steps were conducted in accordance with the instructions of the Promega CellTiter-Glo Luminescent Cell Viability Assay Kit (Promega-G7573). • a) CellTiter-Glo buffer was thawed and brought to room temperature. • b) CellTiter-Glo substrate was also brought to room temperature. • c) CellTiter-Glo buffer was added to a bottle of CellTiter-Glo substrate to dissolve the substrate, thereby preparing CellTiter-Glo working solution. • d) The mixture was slowly vortexed and shaken to be fully dissolved. • e) The cell culture plate was removed and allowed to equilibrate to room temperature for 10 minutes. • f) 50 μL (equal to half the volume of cell culture medium in each well) of CellTiter-Glo working solution was added to each well. • g) The culture plate was shaken on an orbital shaker for 2 minutes to induce cell lysis. • h) The plate was then left at room temperature for 10 minutes to stabilize the luminescent signal. • i) The luminescent signal was detected using a SpectraMax Paradigm plate reader.
Data analysis was conducted using GraphPad Prism 5.0 software. Nonlinear S-curve regression was employed to fit the data and generate dose-response curves. From these curves, the IC50 values were calculated.

Sequence of TYK2 JH2 pseudokinase (P29597 589-875 limits assumed): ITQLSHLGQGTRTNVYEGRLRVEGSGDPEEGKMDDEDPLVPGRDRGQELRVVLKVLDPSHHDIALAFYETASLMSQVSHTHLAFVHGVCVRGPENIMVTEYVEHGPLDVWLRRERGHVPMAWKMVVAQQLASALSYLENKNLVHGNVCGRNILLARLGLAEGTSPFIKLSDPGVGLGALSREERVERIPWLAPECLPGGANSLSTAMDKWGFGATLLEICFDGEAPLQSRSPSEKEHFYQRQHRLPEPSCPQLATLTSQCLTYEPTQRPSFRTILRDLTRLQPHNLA

Compound	pIC50 (TYK2 JH2 pseudokinase)	pIC50 (Ba/F3-TEL-TYK2 cells)
CNC(=O)c1cnc(NC(=O)C2CC2)cc1Nc1cccc(-c2ccc(S(=O)(=O)C(C)C)cn2)c1OC.Cl [Hydrochloride of WX-020]	10.10	< 5.00
CNC(=O)c1nnc(NC(=O)C2CC2)cc1Nc1cccc(-c2ncc(S(=N)(=O)C(C)C)cn2)c1OC (single isomer, unassigned) [WX-011A]	10.00	< 5.00
CNC(=O)c1cnc(NC(=O)C2CC2)cc1Nc1cccc(-c2ncc(S(=O)(=O)C(C)C)cn2)c1OC [WX-019]	10.05	< 5.00
CNC(=O)c1nnc(NC(=O)C2CC2)cc1Nc1cccc(-c2ccc(P(=O)(C3CC3)C3CC3)cn2)c1OC [WX-021]	10.10	< 5.00
CNC(=O)c1nnc(NC(=O)C2CC2)cc1Nc1cccc(-c2ccc(S(=N)(=O)C(C)C)cn2)c1OC (single isomer, unassigned) [WX-012A]	10.10	< 5.00
CNC(=O)c1nnc(NC(=O)C2CC2)cc1Nc1cccc(-c2ccc(S(=N)(=O)C(C)C)cn2)c1OC (single isomer, unassigned) [WX-012B]	10.10	< 5.00
CNC(=O)c1nnc(NC(=O)C2CC2)cc1Nc1cccc(-c2ncc(S(=N)(=O)C(C)C)cn2)c1OC (single isomer, unassigned) [WX-011B]	10.10	< 5.00
